According to paper PMC7979765, “trans-Translation inhibitors bind to a novel site on the ribosome and clear Neisseria gonorrhoeae in vivo” (Nature Communications, 2021):
In brackets after ≈: the same amount, converted by molar mass. Several values for one entry are separate records, joined by “and”; a condition that tells them apart may be missing. Identical values can stand only once. Like-named read-outs stand apart in the source and are kept apart here.

How the values were obtained:
[1] = Liver microsome stability, murine; assay type: in vitro ADME, mouse
Procedure, shortened: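 Compounds incubated with liver microsomes plus NADPH over 30 min; parent remaining quantified by reverse-phase LC/MS. Half-life from linear regression over several time points.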

[2] = Serum protein binding, murine; assay type: in vitro ADME, mouse; conditions: Eurofins; for fraction unbound: mouse, serum, read-out: Serum binding (% bound) Murine (converted)
Description: Serum protein binding was determined using an equilibrium dialysis method as described. The amount of compound in each chamber (buffer and serum) was measured using methods for reverse-phase liquid chromatography/mass spectroscopy methods that were customized for each compound.

Neisseria gonorrhoeae = test: MIC, microbroth dilution, G77L medium; assay type: cell-based

## O=C(Nc1nnc(-c2ccc(F)cc2)o1)N1CCc2ccccc2C1 [MBX-4132]
[1]; Reported value, Eurofins
  Microsomal stability (t½, min) Murine: >120 min
[1]; mouse, murine liver microsomes, read-out: MMS / Microsomal Stability (t1/2), murine
  half-life: > 2 h
[1]; murine liver microsomes, average of replicates
  Average MLMS t½: >2 h
[1]; murine liver microsomes, individual replicates
  MLMS t½: >2 h
[2]; Replicate 1/2
  Serum binding (% bound) Murine: 99.9% and 95.5%
[2]; Average Value
  fraction unbound: 0.023
[2]; Reported value
  fraction unbound: 0.02
Neisseria gonorrhoeae; Neisseria gonorrhoeae ATCC 49226, source data, individual replicates
  MIC: 0.08459 µg/mL (≈ 0.25 µM)
Neisseria gonorrhoeae; Neisseria gonorrhoeae, ATCC49226, Neisseria gonorrhoeae ATCC 49226, source data, individual replicates
  MIC: 0.169 µg/mL (≈ 0.5 µM)
Neisseria gonorrhoeae; Neisseria gonorrhoeae, ATCC49226, read-out: MIC GEOMEAN, strain ATCC 49226, geomean of replicates
  MIC: 0.134 µg/mL (≈ 0.396 µM)
Neisseria gonorrhoeae; Neisseria gonorrhoeae, ATCC49226, strain ATCC 49226, replicates 1-3
  MIC: 0.169 µg/mL (≈ 0.499 µM)
Neisseria gonorrhoeae; Neisseria gonorrhoeae, ATCC49226, strain ATCC 49226, type strain
  MIC: 0.13 µg/mL (≈ 0.384 µM)
Neisseria gonorrhoeae; Neisseria gonorrhoeae, ATCC49226, strain MMX ATCC 49226, broth dilution by Micromyx
  MIC: 0.27 µg/mL (≈ 0.798 µM)
Neisseria gonorrhoeae; Neisseria gonorrhoeae, ATCC700719, read-out: MIC GEOMEAN, strain ATCC 700719, geomean of replicates
  MIC: 0.213 µg/mL (≈ 0.63 µM)
Neisseria gonorrhoeae; Neisseria gonorrhoeae, ATCC700719, strain ATCC 700719, SPT
  MIC: 0.21 µg/mL (≈ 0.621 µM)
Neisseria gonorrhoeae; Neisseria gonorrhoeae, ATCC700719, strain ATCC 700719, replicates 1-3
  MIC: 0.169 µg/mL (≈ 0.499 µM)
Neisseria gonorrhoeae; Neisseria gonorrhoeae, ATCC700825, read-out: MIC GEOMEAN, strain ATCC 700825, geomean of replicates
  MIC: 0.042 µg/mL (≈ 0.124 µM)
Neisseria gonorrhoeae; Neisseria gonorrhoeae, ATCC700825, strain ATCC 700825, STR
  MIC: 0.04 µg/mL (≈ 0.118 µM)
Neisseria gonorrhoeae; Neisseria gonorrhoeae, ATCC700825, strain ATCC 700825, replicates 1-3
  MIC: 0.042 µg/mL (≈ 0.124 µM)
Neisseria gonorrhoeae; Neisseria gonorrhoeae, BAA1846, read-out: MIC GEOMEAN, strain BAA-1846, geomean of replicates
  MIC: 0.042 µg/mL (≈ 0.124 µM)
Neisseria gonorrhoeae; Neisseria gonorrhoeae, BAA1846, strain BAA-1846, TET
  MIC: 0.04 µg/mL (≈ 0.118 µM)
Neisseria gonorrhoeae; Neisseria gonorrhoeae, BAA1846, strain BAA-1846, replicates 1-3
  MIC: 0.042 µg/mL (≈ 0.124 µM)
Neisseria gonorrhoeae; Neisseria gonorrhoeae, read-out: MIC90 (n)
  MIC90: 0.53 µg/mL (≈ 1.57 µM)
Neisseria gonorrhoeae; Neisseria gonorrhoeae, read-out: MIC GEOMEAN, strain CDC-0165, geomean of replicates
  MIC: 0.677 µg/mL (≈ 2 µM)
Neisseria gonorrhoeae; Neisseria gonorrhoeae, read-out: MIC GEOMEAN, strain CDC-0166, geomean of replicates
  MIC: 0.169 µg/mL (≈ 0.499 µM)
Neisseria gonorrhoeae; Neisseria gonorrhoeae, read-out: MIC GEOMEAN, strain CDC-0167, geomean of replicates
  MIC: 0.134 µg/mL (≈ 0.396 µM)
Neisseria gonorrhoeae; Neisseria gonorrhoeae, read-out: MIC GEOMEAN, strain CDC-0169, geomean of replicates
  MIC: 0.169 µg/mL (≈ 0.499 µM)
Neisseria gonorrhoeae; Neisseria gonorrhoeae, read-out: MIC GEOMEAN, strain CDC-0170, geomean of replicates
  MIC: 0.169 µg/mL (≈ 0.499 µM)
Neisseria gonorrhoeae; Neisseria gonorrhoeae, read-out: MIC GEOMEAN, strain CDC-0171, geomean of replicates
  MIC: 0.169 µg/mL (≈ 0.499 µM)
Neisseria gonorrhoeae; Neisseria gonorrhoeae, read-out: MIC GEOMEAN, strain CDC-0172, geomean of replicates
  MIC: 0.169 µg/mL (≈ 0.499 µM)
Neisseria gonorrhoeae; Neisseria gonorrhoeae, read-out: MIC GEOMEAN, strain CDC-0173, geomean of replicates
  MIC: 0.169 µg/mL (≈ 0.499 µM)
Neisseria gonorrhoeae; Neisseria gonorrhoeae, read-out: MIC GEOMEAN, strain CDC-0174, geomean of replicates
  MIC: 0.169 µg/mL (≈ 0.499 µM)
Neisseria gonorrhoeae; Neisseria gonorrhoeae, read-out: MIC GEOMEAN, strain CDC-0175, geomean of replicates
  MIC: 0.085 µg/mL (≈ 0.251 µM)
Neisseria gonorrhoeae; Neisseria gonorrhoeae, read-out: MIC GEOMEAN, strain CDC-0176, geomean of replicates
  MIC: 0.338 µg/mL (≈ 0.999 µM)
Neisseria gonorrhoeae; Neisseria gonorrhoeae, read-out: MIC GEOMEAN, strain CDC-0177, geomean of replicates
  MIC: 0.169 µg/mL (≈ 0.499 µM)
Neisseria gonorrhoeae; Neisseria gonorrhoeae, read-out: MIC GEOMEAN, strain CDC-0178, geomean of replicates
  MIC: 0.338 µg/mL (≈ 0.999 µM)
Neisseria gonorrhoeae; Neisseria gonorrhoeae, read-out: MIC GEOMEAN, strain CDC-0179, geomean of replicates
  MIC: 0.085 µg/mL (≈ 0.251 µM)
Neisseria gonorrhoeae; Neisseria gonorrhoeae, read-out: MIC GEOMEAN, strain CDC-0180, geomean of replicates
  MIC: 0.169 µg/mL (≈ 0.499 µM)
Neisseria gonorrhoeae; Neisseria gonorrhoeae, read-out: MIC GEOMEAN, strain CDC-0181, geomean of replicates
  MIC: 0.169 µg/mL (≈ 0.499 µM)
Neisseria gonorrhoeae; Neisseria gonorrhoeae, read-out: MIC GEOMEAN, strain CDC-0182, geomean of replicates
  MIC: 0.169 µg/mL (≈ 0.499 µM)
Neisseria gonorrhoeae; Neisseria gonorrhoeae, read-out: MIC GEOMEAN, strain CDC-0183, geomean of replicates
  MIC: 0.338 µg/mL (≈ 0.999 µM)
Neisseria gonorrhoeae; Neisseria gonorrhoeae, read-out: MIC GEOMEAN, strain CDC-0184, geomean of replicates
  MIC: 0.169 µg/mL (≈ 0.499 µM)
Neisseria gonorrhoeae; Neisseria gonorrhoeae, read-out: MIC GEOMEAN, strain CDC-0185, geomean of replicates
  MIC: 0.269 µg/mL (≈ 0.795 µM)
Neisseria gonorrhoeae; Neisseria gonorrhoeae, read-out: MIC GEOMEAN, strain CDC-0186, geomean of replicates
  MIC: 0.169 µg/mL (≈ 0.499 µM)
Neisseria gonorrhoeae; Neisseria gonorrhoeae, read-out: MIC GEOMEAN, strain CDC-0187, geomean of replicates
  MIC: 0.338 µg/mL (≈ 0.999 µM)
Neisseria gonorrhoeae; Neisseria gonorrhoeae, read-out: MIC GEOMEAN, strain CDC-0188, geomean of replicates
  MIC: 0.169 µg/mL (≈ 0.499 µM)
Neisseria gonorrhoeae; Neisseria gonorrhoeae, read-out: MIC GEOMEAN, strain CDC-0189, geomean of replicates
  MIC: 0.134 µg/mL (≈ 0.396 µM)
Neisseria gonorrhoeae; Neisseria gonorrhoeae, read-out: MIC GEOMEAN, strain CDC-0190, geomean of replicates
  MIC: 0.169 µg/mL (≈ 0.499 µM)
Neisseria gonorrhoeae; Neisseria gonorrhoeae, read-out: MIC GEOMEAN, strain HO41, geomean of replicates
  MIC: 0.169 µg/mL (≈ 0.499 µM)
Neisseria gonorrhoeae; Neisseria gonorrhoeae, read-out: MIC GEOMEAN, strain WHO F, geomean of replicates
  MIC: 0.066 µg/mL (≈ 0.195 µM)
Neisseria gonorrhoeae; Neisseria gonorrhoeae, read-out: MIC GEOMEAN, strain WHO G, geomean of replicates
  MIC: 0.132 µg/mL (≈ 0.39 µM)
Neisseria gonorrhoeae; Neisseria gonorrhoeae, read-out: MIC GEOMEAN, strain WHO K, geomean of replicates
  MIC: 0.264 µg/mL (≈ 0.78 µM)
Neisseria gonorrhoeae; Neisseria gonorrhoeae, read-out: MIC GEOMEAN, strain WHO L, geomean of replicates
  MIC: 0.264 µg/mL (≈ 0.78 µM)
